Results reported in patent US12616674B2, “Anti-fibrotic NEU3 inhibitor compounds and methods of use” (The Texas A&M University System, priority 2019, dated 2026).
pIC50: −log10 of the molar value. “Also recorded” adds a separate entry of the source.

Tests used:
[1] = target: T1, recombinant human sialidase NEU3 (Homo sapiens, UniProt Q9UQ49); assay: NEU3-catalyzed L-TGF-β1 activation (TGF-β1 release/concentration assay, active TGF-β1 ELISA); format: biochemical; conditions: recombinant human NEU3, L-TGF-β1, PBS pH 6.9, 2 hours 37° C.; read-out: IC50, inhibits human NEU3 in the TGF-β1 concentration (release) assay
T1 construct: purchased Origene TP316537
T1 sequence (Q9UQ49 1-428): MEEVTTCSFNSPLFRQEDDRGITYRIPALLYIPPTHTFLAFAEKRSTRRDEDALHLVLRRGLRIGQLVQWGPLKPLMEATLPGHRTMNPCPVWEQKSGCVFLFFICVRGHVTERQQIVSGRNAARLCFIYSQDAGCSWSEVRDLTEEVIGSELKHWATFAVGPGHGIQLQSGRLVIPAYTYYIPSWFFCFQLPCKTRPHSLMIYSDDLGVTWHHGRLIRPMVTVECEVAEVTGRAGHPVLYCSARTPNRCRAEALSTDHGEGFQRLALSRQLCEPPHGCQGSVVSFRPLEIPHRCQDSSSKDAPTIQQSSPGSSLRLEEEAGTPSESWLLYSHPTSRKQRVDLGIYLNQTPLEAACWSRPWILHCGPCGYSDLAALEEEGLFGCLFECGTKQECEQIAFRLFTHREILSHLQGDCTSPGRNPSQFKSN
Procedure: To determine if NEU3 can cause latent transforming growth factor-β1 (L-TGF-β1) to release active TGF-β1, 200 ng/ml recombinant human L-TGF-β1 (299-LT/CF, R&D Systems) was incubated with varying concentrations of recombinant human NEU3 (TP316537, Origene) in a total volume of 100 μl of PBS pH 6.9 in a 96-well microplate (651261, Greiner Bio-one, Monroe, NC). The microplates were covered with aluminum foil and incubated at 37° C. for 2 hours. Following incubation, the reaction mixtures were assayed using a TGF-β1 ELISA kit (DY240, R&D Systems) following the manufacturer's protocol with the exception that the reaction mixtures were not processed for acid treatment, so as to measure only active TGF-β1 and not total TGF-β1. The absorbance was read with a SynergyMX plate reader (BioTek, Winooski, VT).
To determine the ability of compounds 1-31 to inhibit human recombinant NEU3 in-vitro, compounds were dissolved in 5 ml water to 20 mM in 15 ml tubes (89039-664, VWR, Radnor, PA), with the exception that 4-hydroxypyridine-2-carboxylic acid, nicotinic acid, and 4-aminopicolinic acid were dissolved in 50 μl DMSO to 2 M, and this was then added to 4.95 ml of water to make a 20 mM stock, and O-(tetrahydro-2H-pyran-2yl) hydroxylamine and salicylic acid were dissolved in 50 μl methanol to 2 M, and this was then added to 4.95 ml of water to make a 20 mM stock. All stocks were stored at 4° C. and used within 2 weeks of preparation. A 10-fold dilution series of the compounds starting at 2 mM were made in PBS pH 6.9 in 1.7 ml clear microtubes (22-281, Genesee Scientific). 100 μl of diluted compound was added to the well of a 96 well plate and then 50 μl of 400 ng/ml recombinant human sialidase NEU3 (TP316537, Origene) in PBS pH 6.9 was added to each well (50 μl PBS pH 6.9 for the control), and the plate was incubated for 30 minutes at 37° C. 50 μl of 800 ng/ml L-TGF-β1 (299-LT/CF, R&D Systems) in PBS pH 6.9 was then added to the well. The plate was covered with aluminum foil and incubated for 2 hours at 37° C., and released active TGF-β1 was assayed as described above.

[2] = test system: C57BL/6 mice on regular or high fat diet; assay: High fat diet C57BL/6 mice treated with intraperitoneal DANA; format: in vivo, mouse
Procedure: 12 week old male C57BL/6 mice (#000664; Jackson Laboratory, Farmington, CT) were fed standard rodent chow (15% kcal fat, Teklad 8604, Envigo, Madison WI) and 12-16 week old male C57BL/6 mice (#380050; Jackson) were fed a high fat diet (60% kcal fat, D12492 formula; Research Diets New Brunswick, NJ). Mice were placed on the specified diets for 6 weeks before the start of treatment. To determine if the sialidase inhibitor DANA (#252926-10MG, Millipore-Sigma, Burlington, MA) decreases high-fat diet induced weight gain, mice were treated every 48 hours with intraperitoneal injections of phosphate-buffered saline (PBS) or DANA at 10 mg/kg in PBS, formulated as 4 mg/ml in PBS. Mice were maintained on their specific diets and received injections every 48 hours for 5 weeks (35 days). Animals were housed with a 12-hour/12-hour light-dark cycle (lights on at 7 AM) with free access to food and water. All injections were performed between 9:00 and 11:00 AM. This protocol was done with specific approval of the Texas A&M University institutional animal care and use committee.
To determine the amount of steatosis (accumulation of fat in the cells of the liver), frozen sections were prepared by placing freshly isolated pieces of liver in Surgipath frozen section compound, freezing on dry ice, and storing at −80° C. 10-12 μm cryosections of liver were placed on glass slides and were stained with oil red O to detect the accumulation of lipids as described in Mehlem, A., et al., Imaging of neutral lipids by oil red O for analyzing the metabolic status in health and disease, Nat. Protoc., 2013. 8(6): p. 1149-54.
As in Example 9, mice were maintained on their specific diets and received injections of buffer or DANA every 48 hours for 5 weeks (35 days). Following euthanasia, liver tissue was removed, fixed, and then sectioned as described above.
This situation leads to elevated levels of glucose in the blood system, and following an increase in blood glucose (such as after a meal or an injection of glucose), the body takes longer than normal to reduce blood glucose levels. To determine if DANA could reduce blood glucose levels, on day 33 of the experiment described in […], mice were fasted for 16 hours starting at 5 PM. On day 34, mice received an IP injection of 1.5 g/kg glucose (Amresco, Solon, OH) formulated as 525 mg/ml in PBS. Blood glucose levels were measured before glucose administration (0 minutes), and at 20, 40, 60, 90, and 120 minutes after the injection using commercial blood glucose test strips (CVS Pharmacy, Woonsocket, RI).
Obesity is associated with increased size (weight) of many organs, including white fat and liver. To determine if the sialidase inhibitor DANA could prevent a high fat diet-induced increase in organ weights, at day 35 of the experiment described in Example 9, following euthanasia, organs including epididymal white adipose and inter-scapular brown adipose tissue, liver, spleen, lungs, and kidneys were weighed.

[3] = test system: NEU3 enzymic activity, hepatic steatosis and weight gain in mice; conditions: oral administration; cited from earlier work
[4] = HFD mice, DANA vs control HFD, day 35, FIG. 19

pIC50 [1]: 3.60
SMILES: CC(=O)N[C@@H]1C(O)C=C(C(=O)O)O[C@H]1[C@H](O)[C@H](O)CO (stereo partly shown) [Compound 1, DANA]
oil red O staining in the liver (neutral lipid accumulation) ([2]; HFD mice, DANA 10 mg/kg i.p. every 48 hours for 35 days, vs saline, FIG. 14): significant reduction
F4/80 positive cells in the liver ([2]; HFD mice, DANA i.p. every 48 hours for 35 days, vs saline, FIG. 15): significant reduction
high fat diet induced weight gain ([2]; HFD mice, DANA i.p. injections vs PBS, after 21 days of treatment, FIG. 16): prevents weight gain; also recorded: significant reduction in weight gain
total glucose levels (AUC over 120 minutes) ([2]; HFD mice, DANA vs HFD control, FIG. 18): significantly lower
blood glucose levels after glucose injection ([2]; HFD mice, DANA vs control HFD, at 60 minutes after 1.5 g/kg IP glucose, FIG. 17): significantly lower
brown fat weight (percent of body weight) [2, 4]: significantly lower
white fat weight (percent of body weight) [2, 4]: significantly lower
weight of mice on regular chow ([2]; regular chow mice, DANA vs PBS injections): no effect; also recorded: no significant differences in weight
organ weights ([2]; regular chow mice, DANA vs PBS, day 35, FIG. 19): no significant differences in any organ weights
oil red O staining in the liver ([2]; regular diet mice, DANA 10 mg/kg i.p. every 48 hours for 35 days, vs saline): no significant difference
F4/80 staining in the liver ([2]; regular diet mice, DANA i.p. every 48 hours for 35 days, vs saline): no significant difference
fasting glucose levels or glucose levels after the glucose injection ([2]; standard chow mice, DANA vs PBS, FIG. 17): no significant differences
HFD-induced weight gain [3]: attenuated
NEU3 enzymic activity in the small intestine [3]: inhibited
hepatic steatosis [3]: attenuated
